Data set [1] is described as follows: Metabolic stability in rat liver microsomes. In kind it is in vitro ADME.
A short description of data set [2]: In vivo pharmacokinetics in Sprague-Dawley rats. Particulars: male, rat, ip, 10 mg/kg.
Data set [3] deals with Sprague-Dawley rats. As to the kind of experiment: Locomotor activity. The class given is in vivo, rat. Particulars: 10 mg/kg i.p., 30 min, p > 0.05.
In data set [4] the test system is panel of ~50 GPCRs (PDSP). As to conditions: 10 μM; any of the receptors of the panel.
A short description of data set [5]: Rat plasma protein binding. The class given is in vitro ADME.
Data set [6] can be described thus: Aqueous solubility. In kind it is physicochemical. Particulars: aqueous medium (not further specified).
For data set [7] the following is noted: rat liver microsomes; cited from earlier work.
For data set [8], the system named is MDCK-MDR1 cells. As to conditions: cited from earlier work.

Read-outs that look alike come from different tables or passages of the source. Bounds are passed on as bounds.

Consider `Cc1cccc(CCNC(=O)Nc2ccc(Cl)cc2)c1` [Compound 17, 3-(4-Chlorophenyl)-1-[2-(3-methylphenyl)ethyl]urea], for which, in data set [1], the “%Qh (percentage of hepatic blood flow)” value came out at 72.2%.

On to `O=C(NCCc1cccc(C(F)(F)F)c1)Nc1ccc(Cl)cc1` [Compound 34, 3-(4-Chlorophenyl)-1-{2-[3-(trifluoromethyl)phenyl]ethyl}urea], for which the “%Qh (percentage of hepatic blood flow)” value in data set [1] was 69.8%.

Regarding `O=C(NCCc1cccc(Cl)c1)Nc1ccc(Cl)cc1` [Compound 31, 3-(4-Chlorophenyl)-1-[2-(3-chlorophenyl)ethyl]urea], in data set [2] (brain), the CL/F is 7.24 L/h/kg and the half-life is 54 min. Besides, in data set [2] (plasma), the half-life was 37.8 min. Besides, the locomotion entry in data set [3] is listed as “did not significantly affect locomotion”. Also, the “inhibition at PDSP panel receptors” value in data set [4] is under 50 % inhibition.

In the case of `O=C(Nc1ccc(Cl)cc1)Nc1cccc(-c2cccc(N3CCCC3)n2)c1` [Compound 2, 1-(4-chlorophenyl)-3-{3-[6-(pyrrolidin-1-yl)pyridin-2-yl]phenyl}urea], in data set [5], the fraction unbound worked out at 0.001. In data set [6], this molecule returned a solubility of under 0.5 µM. Besides, the “%Qh (percentage of hepatic blood flow)” value in data set [7] is on record as 72.6%. In data set [8], the “Efflux BA/AB” value is on record as 0.8, the “Papp (A-to-B)” value was 2.6 ± 0 x10^−6 cm/s and the “Papp (B-to-A)” value was 2.2 ± 0.1 x10^−6 cm/s.
